Data on one compound can be found in patent publication US20240325339A1, “MELATONIN AGONIST TREATMENT” (Vanda Pharmaceuticals Inc., priority 2006, published 2024).

“Also recorded” adds a separate entry of the source.

Data set [1] deals with healthy male and female subjects with induced transient insomnia. As to the kind of experiment: Example 2 study of single oral doses in induced transient insomnia: polysomnography. Format: in vivo, human. On the procedure:
(§1) A multi-center, randomized, double-blind, placebo-controlled, parallel-group study was conducted to investigate the efficacy and safety of single oral doses of VEC-162 (20, 50, and 100 mg) and matching placebo in healthy male and female subjects with induced transient insomnia. Approximately four hundred subjects were randomized in approximately a 1:1:1:1 ratio to the treatment groups.
(§2) In general, a screening period began 14 to 35 days prior to the start of the evaluation period, which was Day 1. Prior to Day 1, subjects were asked to increase their sleep time to 9 hours per night. Drug, or placebo, was administered on Night 1, approximately 0.5 hour prior to lights off.
The primary efficacy variable was LPS. LPS is defined as the length of time elapsed between lights off and onset of persistent sleep. In this trial, persistent sleep is defined as the point at which 10 minutes of uninterrupted sleep has begun. Sleep was determined on the basis of polysomnography (PSG).
Secondary efficacy parameters included the following: • Wake After Sleep Onset (WASO): WASO is defined as the time spent awake between onset of sleep and Lights On during Night 1, determined by PSG. • Latency to Non-Awake (LNA): LNA is defined as the number of minutes to reach any stage of sleep. • Total Sleep Time (TST): TST is defined as the number of minutes spent asleep during the entire time in bed.

Data set [2] has as its system elderly patients with primary insomnia. The settings on record: 28-day Phase II study; cited from earlier work.
The subject of data set [3] is preclinical models of acute phase-shifting and chronic re-entrainment. The following applies: cited from earlier work.
Data set [4] has as its target T1, MT2R melatonin receptor (Homo sapiens, UniProt P49286).
T1 sequence (P49286 1-362): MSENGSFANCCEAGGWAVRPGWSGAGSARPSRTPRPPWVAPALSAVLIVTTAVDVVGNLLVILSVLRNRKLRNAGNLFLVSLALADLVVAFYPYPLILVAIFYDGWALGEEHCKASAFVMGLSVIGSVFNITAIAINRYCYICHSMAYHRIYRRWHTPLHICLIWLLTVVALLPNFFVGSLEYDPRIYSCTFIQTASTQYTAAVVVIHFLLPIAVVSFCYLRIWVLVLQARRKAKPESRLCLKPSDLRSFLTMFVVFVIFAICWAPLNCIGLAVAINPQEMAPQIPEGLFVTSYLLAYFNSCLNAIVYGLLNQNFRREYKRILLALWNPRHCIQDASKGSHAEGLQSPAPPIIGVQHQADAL
The settings on record: cited from earlier work.

Data set [5] deals with MT1R melatonin receptor (Homo sapiens, UniProt P48039). The settings on record: cited from earlier work.
MT1R melatonin receptor, sequence (P48039 whole entry): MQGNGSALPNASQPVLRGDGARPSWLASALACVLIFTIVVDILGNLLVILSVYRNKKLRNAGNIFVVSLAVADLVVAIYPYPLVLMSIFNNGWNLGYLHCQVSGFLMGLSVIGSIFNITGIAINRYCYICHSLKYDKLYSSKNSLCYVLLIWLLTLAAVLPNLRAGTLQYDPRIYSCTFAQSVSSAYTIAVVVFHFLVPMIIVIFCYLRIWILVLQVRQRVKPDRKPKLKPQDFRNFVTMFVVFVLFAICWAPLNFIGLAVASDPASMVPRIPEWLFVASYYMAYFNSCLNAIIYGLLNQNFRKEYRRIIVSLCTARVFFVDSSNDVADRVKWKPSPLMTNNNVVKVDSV
Data set [6] relates to healthy volunteers. The settings on record: cited from earlier work.
Data set [7] in a line: Example 1 clinical trial: exposure (Cmax, AUC). Type of data set: in vivo, human. The protocol:
(§3) A clinical trial was conducted to assess the safety of MA-1 as well as to determine the ability of MA-1 to shift the sleep/wake cycle following a 5-hour advance in bedtime. The study was a randomized, double-blind, parallel group, placebo-controlled study. It consisted of a 2-4-week outpatient screening period followed by an 8-day inpatient stay. After acclimating to the sleep lab, bedtime was advanced by 5 hours. The primary objectives of this study were to investigate the exposure-response to MA-1 on advancement of circadian release of endogenous melatonin rhythm as measured by dim light melatonin onset (DLMO, a biomarker of the sleep-wake cycle), to investigate the exposure-response to MA-1 on mean sleep efficiency parameters as measured by PSG, to investigate the exposure-response to MA-1 on objective neurobehavioral performance lapses during scheduled work-time as measured by computerized continuous performance testing, and to assess the safety and tolerability of MA-1. Forty-five healthy volunteers, men and women aged 18-50, were enrolled into this study. Thirty-nine subjects were randomized.
The differences in DLMO25% between the endpoint day (Nights 4, 5 and 6) and baseline (Night 3) were analyzed by comparing pairwise each dose group to placebo using a linear one-way analysis of variance (ANOVA) model using in SAS® (SAS® Institute, Cary, North Carolina). Means were calculated using the LS Means method in SAS®. Standard deviations were calculated using the Statistical Summary function in SAS®. Other statistical tests were also presented in graphics. These included: linear regression of response vs. exposure (dose, AUC, or Cmax), Kendall-tau nonparametric regression, and Spearman nonparametric regression.

Data set [8] deals with healthy volunteers. The data set is described as follows: Example 1 clinical trial, 5-hour advance in bedtime: polysomnography (sleep efficiency, sleep latency, WASO, sleep architecture). The settings on record: human, in vivo. The protocol: as §3, with “Thirty-nine subjects were randomized.” left out
The study was designed to assess the safety and efficacy of four oral doses of MA-1 (10 mg, 20 mg, 50 mg and 100 mg) compared to matching placebo on circadian phase shift, sleep parameters during the major sleep episode, and subject alertness. […] Baseline assessments for the efficacy parameters were measured during this period. […]

For data set [9], the system named is healthy male and female subjects with induced transient insomnia. As to the kind of experiment: Example 2 study: tolerability. Format: in vivo, human. The following applies: single oral doses 20, 50 and 100 mg. The protocol: as §1, §2
Data set [10] can be described thus: Solubility. Format: physicochemical.
The subject of data set [11] is healthy volunteers. The data set is described as follows: Example 1 clinical trial, 5-hour advance in bedtime: dim light melatonin onset (DLMO) from plasma melatonin. Type of data set: in vivo, human. The protocol: as §3
The study was designed to assess the safety and efficacy of four oral doses of MA-1 (10 mg, 20 mg, 50 mg and 100 mg) compared to matching placebo on circadian phase shift, sleep parameters during the major sleep episode, and subject alertness. After written informed consent was signed, subjects that met the inclusion/exclusion criteria at screening and baseline were enrolled into the 8-day in-patient portion of the study. All in-patient assessments were conducted in a time-isolation sleep lab in which no time cues were available to subjects. During the first three nights, subjects were given placebo 30 minutes prior to bedtime (11:00 PM) in a single-blind fashion. Baseline assessments for the efficacy parameters were measured during this period. At 5:00 PM on day 3, subjects started a 19 hour Pre-constant posture (CP) segment during which time the subjects remained seated in a semi-recumbent position and blood samples were collected approximately every hour from 7:00 AM to 12:00 PM. The purpose of the pre-CP segment is to provide a measure of each subject's circadian phase before the start of the night shift segment. On day 4, subjects were randomized to once daily treatment in one of the five treatment groups. In addition, subject sleep-wake routines were advanced 5 hours, such that subjects were required to sleep from approximately 6:00 PM-2:00 AM. […] Safety was assessed throughout the study, at the end of study (EOS) visit on day 8, and at the Follow-up visit. […]
To assess circadian sleep-wake cycles in the study, plasma melatonin levels were assessed. […] To assess the effects of MA-1 on the sleep-wake cycles, DLMO was monitored in subjects before and after treatment. […]

For data set [12] the following is noted: 50 mg; cited from earlier work.

For the compound `CCC(=O)NC[C@@H]1C[C@H]1c1cccc2c1CCO2` [MA-1, (1R-trans)-N-[[2-(2,3-dihydro-4-benzofuranyl)cyclopropyl]methyl]propanamide], the entries for the “Efficacy compared with 100 mg” value in [1] (20 mg single oral dose) and in data set [1] (50 mg single oral dose) were “comparable or superior to 100 mg” and “more efficacious than 100 mg”, respectively. Further, the “Sleep latency and number of nocturnal awakenings versus placebo” value in [2] is “did not differentiate from placebo”. For the same compound, in data set [3], the Chronobiotic activity entry is reported as “potent chronobiotic activity”. In addition, in data set [4], the “Agonist activity at MT2R” value is “specific and potent agonist”. Besides, the “Agonist activity at MT1R” value in data set [5] was “specific and potent agonist”. For the same compound, in data set [6] (multiple doses up to 150 mg, up to 28 days), the “Tolerability, multiple doses” value is “safety and tolerability of MA-1 at doses up to 150 mg has been demonstrated; also recorded: well-tolerated”. The “Tolerability, single doses” value in [6] (single oral doses up to 300 mg, healthy volunteers) was “safe and well tolerated”. For the same compound, in [7] (human, in vivo), the “Exposure levels: effect of covariates” value is on record as “not affected by age, weight, height, gender, creatinine clearance, or ALT baseline levels”. Further, in [7] (oral doses 10-100 mg), the AUC versus dose result was “increased approximately proportional to dose”. In addition, the Cmax versus dose result in [7] (oral doses 10-100 mg) is “increased in a manner approximately proportional to the dose”. Further, the “Percentage of time in each sleep stage between Night 4 and Night 2” value in [8] is “did not change”. For the same compound, the Tolerability result in data set [9] is “well-tolerated at all doses”. The “Effect of pH on aqueous solubility” value in [10] was “practically unaffected by pH”. Also, the “Change in DLMO25%, LOQ5 between Night 4 and Night 3” value in [11] (10 mg oral, N = 8, mean) is 0.18 h; in [11] (20 mg oral, N = 7, mean), -1.14 h; in [11] (50 mg oral, N = 4, mean), -0.50 h; in [11] (100 mg oral, N = 5, mean ± SD), -2.74 ± 1.95 h. Besides, in data set [12], the “Shift of circadian rhythms” value is recorded as “consistently shifted circadian rhythms”.
